# Measurements taken from patent US8664277B2, “Compounds and methods for PKCθ inhibition” (Complegen Partners, LLC, priority 2008, dated 2014).
# Read-outs that look alike come from different tables or passages of the source.
# Columns and labels:
# Type in all cases: cell-based
# Human PKC theta = molecular target: T1, Human PKC theta (Homo sapiens, UniProt Q04759); assay: XenoGene yeast growth inhibition, yeast containing human PKC theta gene
# T1 construct: expressed in transfected cells; host or cells: yeast (XenoGene strain)
# T1 sequence (Q04759 whole entry): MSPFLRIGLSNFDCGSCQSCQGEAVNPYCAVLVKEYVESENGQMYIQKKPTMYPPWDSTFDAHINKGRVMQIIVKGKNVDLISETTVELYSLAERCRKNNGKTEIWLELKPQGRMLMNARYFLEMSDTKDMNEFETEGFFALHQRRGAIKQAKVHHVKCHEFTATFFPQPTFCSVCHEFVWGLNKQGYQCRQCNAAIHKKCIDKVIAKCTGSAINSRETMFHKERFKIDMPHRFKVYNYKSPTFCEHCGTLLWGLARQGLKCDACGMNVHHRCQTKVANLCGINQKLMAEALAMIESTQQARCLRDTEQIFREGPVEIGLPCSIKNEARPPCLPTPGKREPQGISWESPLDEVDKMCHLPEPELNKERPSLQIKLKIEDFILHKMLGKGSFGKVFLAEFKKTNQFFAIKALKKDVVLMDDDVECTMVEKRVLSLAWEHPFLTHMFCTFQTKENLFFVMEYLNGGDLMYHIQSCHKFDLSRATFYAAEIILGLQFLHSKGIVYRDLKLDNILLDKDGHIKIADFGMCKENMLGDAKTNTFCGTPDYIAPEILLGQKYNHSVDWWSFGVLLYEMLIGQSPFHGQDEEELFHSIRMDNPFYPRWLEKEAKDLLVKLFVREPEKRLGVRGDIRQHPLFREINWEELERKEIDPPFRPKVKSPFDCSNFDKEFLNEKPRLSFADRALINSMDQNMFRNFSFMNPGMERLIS
# Description: Using the XenoGene™ system described within, compounds inhibiting PKCθ are identified. The XenoGene™ system is a technology developed and patented by CompleGen wherein genes (“XenoGenes”™) from a target organism (e.g. humans) are used to functionally replace essential genes of a simple organism (yeast). These modified yeast are used to select compounds that act specifically on the protein encoded by the target gene and eliminate compounds that are not specific. […]
# PKC epsilon = molecular target: T2, PKC epsilon (Homo sapiens, UniProt Q02156); assay: XenoGene counter-screen, PKC epsilon; conditions: inverse of (PKC-theta IC50)/(PKC-X IC50)
# T2 construct: expressed in transfected cells; host or cells: yeast (XenoGene strain)
# T2 sequence (Q02156 1-737): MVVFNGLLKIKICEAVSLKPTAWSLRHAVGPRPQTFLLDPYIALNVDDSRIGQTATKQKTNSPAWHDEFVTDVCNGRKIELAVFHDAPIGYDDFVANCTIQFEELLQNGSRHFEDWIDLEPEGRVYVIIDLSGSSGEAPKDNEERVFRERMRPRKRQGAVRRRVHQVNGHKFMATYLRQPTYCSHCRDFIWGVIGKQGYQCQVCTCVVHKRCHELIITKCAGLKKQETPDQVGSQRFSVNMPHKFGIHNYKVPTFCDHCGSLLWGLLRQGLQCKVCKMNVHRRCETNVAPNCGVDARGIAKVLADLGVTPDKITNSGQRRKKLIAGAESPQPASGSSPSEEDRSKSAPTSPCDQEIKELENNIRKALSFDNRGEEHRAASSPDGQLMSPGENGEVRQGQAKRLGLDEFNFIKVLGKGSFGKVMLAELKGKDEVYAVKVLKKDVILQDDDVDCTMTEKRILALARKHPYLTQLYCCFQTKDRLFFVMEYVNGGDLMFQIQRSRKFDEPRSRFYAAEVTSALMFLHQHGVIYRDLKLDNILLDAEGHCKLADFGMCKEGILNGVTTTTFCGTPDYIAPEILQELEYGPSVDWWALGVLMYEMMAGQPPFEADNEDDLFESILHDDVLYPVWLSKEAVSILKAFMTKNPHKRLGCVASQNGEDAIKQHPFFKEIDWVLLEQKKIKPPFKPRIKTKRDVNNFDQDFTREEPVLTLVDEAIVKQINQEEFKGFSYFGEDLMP
# Method: (§1) To identify compounds as being selective PKC theta inhibitors the IC50 values are determined against XenoGene™ strains containing other XenoGenes™, especially certain other PKC genes (see Example 10).
# (§2) Human PKC theta gene (cDNA) was used to generate a XenoGene™ system as previously described (U.S. Pat. Nos. 6,998,261, 6,232,074), which was used to screen compounds in a chemical compound library. XenoGene™ systems used as counter-screens were constructed similarly using the gene for the appropriate counter-screen target. In particular, human genes (cDNA) encoding PKC delta, PKC eta and PKC epsilon were used to generate XenoGene™ systems.
# yeast PKC1 = molecular target: T3, yeast PKC1 (Saccharomyces cerevisiae, UniProt P24583); assay: XenoGene counter-screen, yeast PKC1; conditions: inverse of (PKC-theta IC50)/(PKC-X IC50)
# T3 construct: endogenous in cells; host or cells: yeast control strain
# T3 sequence (P24583 1-1151): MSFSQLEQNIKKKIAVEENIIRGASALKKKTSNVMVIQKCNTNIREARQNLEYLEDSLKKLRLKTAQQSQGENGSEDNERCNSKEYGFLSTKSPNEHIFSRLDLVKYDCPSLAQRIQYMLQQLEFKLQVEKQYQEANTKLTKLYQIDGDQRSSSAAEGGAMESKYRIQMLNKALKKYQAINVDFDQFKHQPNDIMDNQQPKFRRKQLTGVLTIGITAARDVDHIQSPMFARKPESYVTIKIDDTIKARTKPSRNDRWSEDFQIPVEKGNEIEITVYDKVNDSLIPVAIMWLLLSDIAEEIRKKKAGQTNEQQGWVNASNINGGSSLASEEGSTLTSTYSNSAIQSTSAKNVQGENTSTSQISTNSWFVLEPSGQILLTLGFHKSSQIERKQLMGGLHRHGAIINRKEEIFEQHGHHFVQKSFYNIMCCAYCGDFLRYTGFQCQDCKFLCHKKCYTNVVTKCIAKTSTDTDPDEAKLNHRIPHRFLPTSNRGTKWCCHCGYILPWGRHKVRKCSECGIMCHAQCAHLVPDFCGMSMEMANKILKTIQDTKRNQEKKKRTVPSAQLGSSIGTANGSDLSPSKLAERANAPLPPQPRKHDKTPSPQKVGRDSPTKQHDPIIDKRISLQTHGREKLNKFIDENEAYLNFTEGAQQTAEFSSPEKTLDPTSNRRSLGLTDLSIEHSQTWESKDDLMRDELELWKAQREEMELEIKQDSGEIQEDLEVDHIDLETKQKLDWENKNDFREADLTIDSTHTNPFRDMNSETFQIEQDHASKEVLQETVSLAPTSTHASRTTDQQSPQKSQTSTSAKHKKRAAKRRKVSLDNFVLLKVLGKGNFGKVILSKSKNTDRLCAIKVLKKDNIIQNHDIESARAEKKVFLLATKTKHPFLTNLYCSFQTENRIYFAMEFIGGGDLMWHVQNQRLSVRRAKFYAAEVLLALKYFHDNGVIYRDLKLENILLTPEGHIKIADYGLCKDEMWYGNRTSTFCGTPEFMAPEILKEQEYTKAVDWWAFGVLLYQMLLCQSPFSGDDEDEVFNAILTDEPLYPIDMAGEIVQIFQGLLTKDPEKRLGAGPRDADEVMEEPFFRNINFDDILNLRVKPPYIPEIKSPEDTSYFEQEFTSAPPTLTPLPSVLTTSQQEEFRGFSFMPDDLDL
# Description: Using the XenoGene™ system described within, compounds inhibiting PKCθ are identified. The XenoGene™ system is a technology developed and patented by CompleGen wherein genes (“XenoGenes”™) from a target organism (e.g. humans) are used to functionally replace essential genes of a simple organism (yeast). These modified yeast are used to select compounds that act specifically on the protein encoded by the target gene and eliminate compounds that are not specific. XenoGene™ constructs provide a very high throughput screening system that allows identification of compounds active on the function of the target protein in a cell under physiological conditions on “first-pass” screening and further, to selectively counter-screen against 200 human targets or more if necessary. […] The relative potencies of the active compounds is determined by titration to find the concentration of compound providing 50% inhibition of growth (IC50) against the yeast containing the target gene (Table 1).
# as §2
# PKC delta = molecular target: T4, PKC delta (Homo sapiens, UniProt Q05655); assay: XenoGene counter-screen, PKC delta; conditions: inverse of (PKC-theta IC50)/(PKC-X IC50)
# T4 construct: expressed in transfected cells; host or cells: yeast (XenoGene strain)
# T4 sequence (Q05655 whole entry): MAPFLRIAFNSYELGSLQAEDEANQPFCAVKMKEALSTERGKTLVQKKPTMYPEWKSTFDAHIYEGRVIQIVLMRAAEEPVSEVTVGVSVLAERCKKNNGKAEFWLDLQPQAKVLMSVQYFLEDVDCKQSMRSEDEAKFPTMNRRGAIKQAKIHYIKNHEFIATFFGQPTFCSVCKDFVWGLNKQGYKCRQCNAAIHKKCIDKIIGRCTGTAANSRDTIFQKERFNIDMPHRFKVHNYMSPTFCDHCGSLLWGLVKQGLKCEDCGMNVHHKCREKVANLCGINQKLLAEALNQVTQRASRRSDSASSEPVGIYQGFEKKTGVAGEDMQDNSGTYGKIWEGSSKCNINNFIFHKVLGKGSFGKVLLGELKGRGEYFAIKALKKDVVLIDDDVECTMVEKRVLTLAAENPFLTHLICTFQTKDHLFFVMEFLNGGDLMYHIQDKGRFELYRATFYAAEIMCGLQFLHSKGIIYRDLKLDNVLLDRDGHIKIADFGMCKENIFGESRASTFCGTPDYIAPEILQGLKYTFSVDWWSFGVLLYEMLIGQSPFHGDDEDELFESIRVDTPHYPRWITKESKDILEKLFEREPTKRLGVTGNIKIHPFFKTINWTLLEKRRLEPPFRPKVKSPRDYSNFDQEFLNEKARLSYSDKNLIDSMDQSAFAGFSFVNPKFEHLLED
# Method: as §1, §2
# PKC eta = molecular target: T5, PKC eta (Homo sapiens, UniProt P24723); assay: XenoGene counter-screen, PKC eta; conditions: inverse of (PKC-theta IC50)/(PKC-X IC50)
# T5 construct: expressed in transfected cells; host or cells: yeast (XenoGene strain)
# T5 sequence (P24723 whole entry): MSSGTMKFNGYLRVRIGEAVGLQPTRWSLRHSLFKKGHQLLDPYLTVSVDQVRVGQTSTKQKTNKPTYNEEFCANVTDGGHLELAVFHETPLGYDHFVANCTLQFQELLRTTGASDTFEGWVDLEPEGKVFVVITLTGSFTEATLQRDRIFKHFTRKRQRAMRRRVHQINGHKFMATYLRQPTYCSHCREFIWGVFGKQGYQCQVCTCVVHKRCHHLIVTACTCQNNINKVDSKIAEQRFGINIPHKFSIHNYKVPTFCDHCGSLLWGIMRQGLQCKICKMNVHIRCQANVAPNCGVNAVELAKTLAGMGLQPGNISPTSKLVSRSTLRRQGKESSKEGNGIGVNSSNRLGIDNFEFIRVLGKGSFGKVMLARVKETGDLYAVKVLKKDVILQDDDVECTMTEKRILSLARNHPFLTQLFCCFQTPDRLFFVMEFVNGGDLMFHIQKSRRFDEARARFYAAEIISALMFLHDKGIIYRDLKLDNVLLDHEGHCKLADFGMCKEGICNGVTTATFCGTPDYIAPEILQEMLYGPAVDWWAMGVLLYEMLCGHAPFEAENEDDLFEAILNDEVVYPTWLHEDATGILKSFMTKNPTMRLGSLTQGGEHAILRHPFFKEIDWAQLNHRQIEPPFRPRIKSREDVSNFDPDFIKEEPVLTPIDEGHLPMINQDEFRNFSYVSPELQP
# Method: as §1, §2
# [1] = IC50, 50% inhibition of growth of yeast containing the target gene
# [2] = 50% inhibition of growth of yeast containing the target gene, read-out: IC50
# [3] = XenoGene system, read-out: PKC-theta IC50
smiles,measurement,setting,value
Nc1ccc(Oc2ccc(C(F)(F)F)cc2Cl)cc1 [Compound 499],IC50,Human PKC theta; [1],< 1 µM
CC(=O)Nc1ccc(Oc2ccc(Cl)cc2Cl)cc1 [Compound 501],IC50,Human PKC theta; [1],> 10 µM
Nc1ccc(Oc2ccc(C3CCCC3)cc2)cc1 [Compound 761],IC50,Human PKC theta; [2],< 1 µM
Nc1ccc(S(=O)(=O)c2ccc(C(F)(F)F)cc2)cc1 [Compound 753],IC50,Human PKC theta; [2],1 to 10 µM
Nc1ccc(Sc2ccc(C(F)(F)F)cc2)cc1 [Compound 741],Selectivity for PKC-theta v. PKC-epsilon,PKC epsilon,16
same,Selectivity for PKC-theta v. yeast PKC1,yeast PKC1,32
same,IC50,Human PKC theta; [2],< 1 µM
same,IC50,Human PKC theta; [3],0.25 µM
same,Selectivity for PKC-theta v. PKC-delta,PKC delta,8.0
same,Selectivity for PKC-theta v. PKC-eta,PKC eta,4.0
Nc1ccc(Oc2ccc(C(F)(F)F)cc2)cc1 [Compound 733],IC50,Human PKC theta; [2],1 to 10 µM
Nc1ccc(Oc2ccc(OC(F)(F)F)cc2Cl)cc1 [Compound 498],IC50,Human PKC theta; [2],< 1 µM
CC(C)(C)c1ccc(S(=O)(=O)c2ccc(N)cc2)cc1 [Compound 749],IC50,Human PKC theta; [2],1 to 10 µM
Nc1ccc(Oc2cc(Cl)cc(Cl)c2)cc1 [Compound 504],Selectivity for PKC-theta v. PKC-epsilon,PKC epsilon,8.8
same,IC50,Human PKC theta; [2],1 to 10 µM
same,IC50,Human PKC theta; [3],1.6 µM
same,Selectivity for PKC-theta v. PKC-delta,PKC delta,8.1
same,Selectivity for PKC-theta v. PKC-eta,PKC eta,1.8
"Nc1ccc(Oc2ccc(Cl)cc2Cl)cc1 [Compound 506, 4-(2,4-dichlorophenoxy)aniline]",Selectivity for PKC-theta v. PKC-epsilon,PKC epsilon,2.5
same,Selectivity for PKC-theta v. yeast PKC1,yeast PKC1,9.4
same,IC50,Human PKC theta; [2],1 to 10 µM
same,IC50,Human PKC theta; [3],1.6 µM
same,Selectivity for PKC-theta v. PKC-delta,PKC delta,1.9
same,Selectivity for PKC-theta v. PKC-eta,PKC eta,0.63
Nc1ccc(Oc2ccc(C(F)(F)F)cc2Br)cc1 [Compound 747],IC50,Human PKC theta; [2],< 1 µM
Nc1ccc(Oc2ccccc2C(=O)O)cc1 [Compound 553],IC50,Human PKC theta; [2],> 10 µM
